Bridge positions count the residues as written; N and C are the ends. Square brackets hold non-standard residues; d marks the D form. Peptide text beside a SMILES is read from it. * marks the point of attachment. Ileψ(thiazoline)Cys = CC[C@H](C)[C@H](N)C1=N[C@H](C(=O)*)CS1; dOrn = NCCC[C@@H](N)C(=O)O
System: SARS-CoV-2
Assay: microbe, parasite or virus in culture
Settings: Severe acute respiratory syndrome coronavirus 2, Vero C1008, 48 h

SMILES	IC50 [µM]	IC50 (read-out: pIC50 (converted)) [µM]
Cn1cc(-c2cc3c(N4CCN(c5ncc([C@@](C)(N)c6ccc(F)cc6)cn5)CC4)ncnn3c2)cn1 [AVAPRITINIB]	> 20	> 20
COc1ccc(C(=O)CC(=O)c2ccc(C(C)(C)C)cc2)cc1 [AVOBENZONE]	> 20	> 20
COc1ccccc1Oc1c(NS(=O)(=O)c2ccc(C)cn2)nc(-c2ccncc2)nc1OC [AVOSENTAN]	> 20	> 20
Nc1ncn([C@@H]2O[C@H](CO)[C@@H](O)[C@H]2O)c(=O)n1 [AZACITIDINE]	> 20	> 20
Clc1ccc(C2(Cn3cncn3)OCCO2)c(Cl)c1 [AZACONAZOLE]	> 20	> 20
OC(c1ccccc1)(c1ccccc1)C1CCNCC1 [AZACYCLONOL]	> 20	> 20
CN1CCC(=C2c3ccccc3Oc3ncccc32)CC1 [AZANATOR]	> 20	> 20
Cn1c([N+](=O)[O-])cnc1/C=C/c1ccnc(N)n1 [AZANIDAZOLE]	> 20	> 20
O=C(CCCN1CCN(c2ccccn2)CC1)c1ccc(F)cc1 [AZAPERONE]	> 20	> 20
C=CCN1Cc2ccccc2-c2ccccc2C1 [AZAPETINE]	> 20	> 20
CC(=O)OC[C@H]1O[C@@H](n2ncc(=O)[nH]c2=O)[C@H](OC(C)=O)[C@@H]1OC(C)=O [AZARIBINE]	> 20	> 20
CN1C(=O)COc2c(C(=O)NC3CN4CCC3CC4)cc(Cl)cc21 (stereo not drawn) [AZASETRON]	> 20	> 20
CN1CCC(=C2c3ccccc3CCc3cccnc32)CC1 [AZATADINE]	> 20	> 20
Cn1cnc([N+](=O)[O-])c1Sc1ncnc2[nH]cnc12 [AZATHIOPRINE]	> 20	> 20
c1cnc2c(c1)C[C@@]1(CN3CCC1CC3)O2 [AZD0328]	> 20	> 20
CC(=O)Nc1cccc2c1c(Sc1ccc(Cl)cc1)c(C)n2CC(=O)O [AZD1981]	> 20	> 20
Cc1[nH]nc(C(F)(F)F)c1Cc1sc2c(c1C(=O)N1C[C@](C)(O)CO1)c(=O)n(C)c(=O)n2C(C)C [AZD3965]	> 20	> 20

SMILES	IC50 [µM]	IC50 (read-out: pIC50 (converted)) [µM]
O=C(NCC12CC3CC(CC(C3)C1)C2)c1cc(CCCNCCCO)ccc1Cl [AZD9056]	> 20	> 20
Cc1cc(Nc2nc(N[C@@H](C)c3ncc(F)cn3)ncc2Cl)[nH]n1 [AZD-1480]	> 20	> 20
COc1ccc(-c2ccc3c(N4CCOC[C@@H]4C)nc(N4CCOC[C@@H]4C)nc3n2)cc1CO [AZD-8055]	> 20	> 20
O=C(O)CCCCCCCC(=O)O [AZELAIC ACID]	> 20	> 20
CCN1CCc2nc(N)oc2CC1 [AZEPEXOLE]	> 20	> 20
CCOc1nc2cccc(C(=O)O)c2n1Cc1ccc(-c2ccccc2-c2noc(=O)[nH]2)cc1 [AZILSARTAN]	> 20	> 20
CN1CCN(CCCCN2C(=O)CN(/N=C/c3ccc(-c4ccc(Cl)cc4)o3)C2=O)CC1 [AZIMILIDE]	> 20	> 20
CN1C(=N)N(c2ccccc2)CC1=O [AZOLIMINE]	> 20	> 20
NS(=O)(=O)c1cc(-c2nnn[nH]2)c(NCc2cccs2)cc1Cl [AZOSEMIDE]	> 20	> 20
C[C@H]1[C@H](NC(=O)/C(=N\OC(C)(C)C(=O)O)c2csc(N)n2)C(=O)N1S(=O)(=O)O [AZTREONAM]	> 20	> 20
O=C1CN(/N=C/c2ncc(-c3ccc(Br)cc3)o2)C(=O)N1 [AZUMOLENE]	> 20	> 20
CCOC(=O)OC(C)OC(=O)[C@@H]1N2C(=O)[C@@H](NC(=O)[C@H](N)c3ccccc3)[C@H]2SC1(C)C (stereo partly drawn) [BACAMPICILLIN]	> 20	> 20
CC[C@H](C)[C@H](N)C1=N[C@H](C(=O)N[C@@H](CC(C)C)C(=O)N[C@H](CCC(=O)O)C(=O)N[C@H](C(=O)N[C@H]2CCCCNC(=O)[C@H](CC(N)=O)NC(=O)[C@@H](CC(=O)O)NC(=O)[C@H](Cc3cnc[nH]3)NC(=O)[C@@H](Cc3ccccc3)NC(=O)[C@H]([C@@H](C)CC)NC(=O)[C@@H](CCCN)NC2=O)[C@@H](C)CC)CS1 [BACITRACIN] ({Ileψ(thiazoline)Cys}-L[dE]IK[dOrn]I[dF]H[dD]N; lactam 4-C)	> 20	> 20
NCC(CC(=O)O)c1ccc(Cl)cc1 (stereo not drawn) [BACLOFEN]	> 20	> 20
O=C(O)[C@H]1O[C@@H](Oc2cc3oc(-c4ccccc4)cc(=O)c3c(O)c2O)[C@H](O)[C@@H](O)[C@@H]1O [BAICALIN]	> 20	> 20
CC(C)C(=O)OC[C@@]1(N=[N+]=[N-])O[C@@H](n2ccc(N)nc2=O)[C@H](OC(=O)C(C)C)[C@@H]1OC(=O)C(C)C [BALAPIRAVIR]	> 20	> 20
COC(=O)OCOc1c2n(ccc1=O)N([C@@H]1c3ccccc3SCc3c1ccc(F)c3F)[C@@H]1COCCN1C2=O [BALOXAVIR MARBOXIL]	> 20	> 20

Source: ChEMBL document CHEMBL4651402, “Screening of ~5500 FDA-approved drugs and clinical candidates for anti-SARS-CoV-2 activity” (2021)
